According to patent publication US20240101576A1, “HETEROCYCLIC INHIBITORS OF EGFR AND/OR HER2, FOR USE IN THE TREATMENT OF CANCER” (Scorpion Therapeutics, Inc., priority 2020, published 2024):

How the values were obtained:
Format in all cases: cell-based
EGFR WT (Ba/F3 cells) = target: T1, EGFR WT (Ba/F3 cells) (Homo sapiens, UniProt P00533); experiment: Inhibitor activity on EGFR-dependent cell growth (CellTiter-Glo, 72 h), Ba/F3 EGFR WT; conditions: read-out: BaF3 WT IC50
T1 construct: expressed in transfected cells; host or cells: Ba/F3 (murine pro-B cells), retroviral transduction, puromycin selection, maintained with EGF
Summary of the method: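 This growth assay used Ba/F3 cells that depend on wild-type EGFR and are kept in EGF without IL3. Compounds were made up as 10 mM DMSO stocks and diluted 3-fold over 10 points. 120 nL went onto 600 cells/well. After 72 hours, 40 μL CellTiter-Glo was added and luminescence read on EnVision after 30 min.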

[1] = target: T2, EGFR exon 20 NPG Ins D770_N771 (Ba/F3 cells) (Homo sapiens, UniProt P00533, INS770NPG); experiment: Inhibitor activity on EGFR-dependent cell growth (CellTiter-Glo, 72 h), Ba/F3 EGFR exon 20 NPG Ins; conditions: read-out: BaF3 NPG IC50
T2 construct: expressed in transfected cells; host or cells: Ba/F3 (murine pro-B cells), retroviral transduction, puromycin selection, IL3-independent pool
Summary of the method: (§1)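 IC50s derive from a sigmoidal dose–response fit of CellTiter-Glo signal. The signal was normalised between […]-treated cells and cell-free medium. Ba/F3 mutant-EGFR cells, seeded at 400–800/well depending on the line, had 72 h of exposure to a 10-point, 3-fold compound series.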

[2] = target: T3, EGFR exon 20 ASV Ins V769_D770 (Ba/F3 cells) (Homo sapiens, UniProt P00533, INS769ASV); experiment: Inhibitor activity on EGFR-dependent cell growth (CellTiter-Glo, 72 h), Ba/F3 EGFR exon 20 ASV Ins; conditions: read-out: BaF3 ASV IC50
T3 construct: expressed in transfected cells; host or cells: Ba/F3 (murine pro-B cells), retroviral transduction, puromycin selection, IL3-independent pool
Summary of the method: as §1

[3] = target: T4, EGFR exon 20 SVD Ins D770_N771 (Ba/F3 cells) (Homo sapiens, UniProt P00533, INS770SVD); experiment: Inhibitor activity on EGFR-dependent cell growth (CellTiter-Glo, 72 h), Ba/F3 EGFR exon 20 SVD Ins; conditions: read-out: BaF3 SVD IC50
T4 construct: expressed in transfected cells; host or cells: Ba/F3 (murine pro-B cells), retroviral transduction, puromycin selection, IL3-independent pool
Summary of the method: as §1

[4] = target: T5, EGFR exon 20 FQEA Ins A763_V764 (Ba/F3 cells) (Homo sapiens, UniProt P00533, INS763FQEA); experiment: Inhibitor activity on EGFR-dependent cell growth (CellTiter-Glo, 72 h), Ba/F3 EGFR exon 20 FQEA Ins; conditions: read-out: BaF3 FQEA IC50
T5 construct: expressed in transfected cells; host or cells: Ba/F3 (murine pro-B cells), retroviral transduction, puromycin selection, IL3-independent pool
Summary of the method: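 Compounds, serially diluted 3-fold over 10 points in DMSO and added at 120 nL per well, act on Ba/F3 EGFR-mutant cells for 72 h. Seeding is 800 (exon 19del, FQEA), 600 (L858R/C797S) or 400 (L858R) cells/well. CTG luminescence is fitted with a four-parameter logistic curve to give IC50.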

T4 sequence (P00533 with tags, fused parts or gaps INS770SVD): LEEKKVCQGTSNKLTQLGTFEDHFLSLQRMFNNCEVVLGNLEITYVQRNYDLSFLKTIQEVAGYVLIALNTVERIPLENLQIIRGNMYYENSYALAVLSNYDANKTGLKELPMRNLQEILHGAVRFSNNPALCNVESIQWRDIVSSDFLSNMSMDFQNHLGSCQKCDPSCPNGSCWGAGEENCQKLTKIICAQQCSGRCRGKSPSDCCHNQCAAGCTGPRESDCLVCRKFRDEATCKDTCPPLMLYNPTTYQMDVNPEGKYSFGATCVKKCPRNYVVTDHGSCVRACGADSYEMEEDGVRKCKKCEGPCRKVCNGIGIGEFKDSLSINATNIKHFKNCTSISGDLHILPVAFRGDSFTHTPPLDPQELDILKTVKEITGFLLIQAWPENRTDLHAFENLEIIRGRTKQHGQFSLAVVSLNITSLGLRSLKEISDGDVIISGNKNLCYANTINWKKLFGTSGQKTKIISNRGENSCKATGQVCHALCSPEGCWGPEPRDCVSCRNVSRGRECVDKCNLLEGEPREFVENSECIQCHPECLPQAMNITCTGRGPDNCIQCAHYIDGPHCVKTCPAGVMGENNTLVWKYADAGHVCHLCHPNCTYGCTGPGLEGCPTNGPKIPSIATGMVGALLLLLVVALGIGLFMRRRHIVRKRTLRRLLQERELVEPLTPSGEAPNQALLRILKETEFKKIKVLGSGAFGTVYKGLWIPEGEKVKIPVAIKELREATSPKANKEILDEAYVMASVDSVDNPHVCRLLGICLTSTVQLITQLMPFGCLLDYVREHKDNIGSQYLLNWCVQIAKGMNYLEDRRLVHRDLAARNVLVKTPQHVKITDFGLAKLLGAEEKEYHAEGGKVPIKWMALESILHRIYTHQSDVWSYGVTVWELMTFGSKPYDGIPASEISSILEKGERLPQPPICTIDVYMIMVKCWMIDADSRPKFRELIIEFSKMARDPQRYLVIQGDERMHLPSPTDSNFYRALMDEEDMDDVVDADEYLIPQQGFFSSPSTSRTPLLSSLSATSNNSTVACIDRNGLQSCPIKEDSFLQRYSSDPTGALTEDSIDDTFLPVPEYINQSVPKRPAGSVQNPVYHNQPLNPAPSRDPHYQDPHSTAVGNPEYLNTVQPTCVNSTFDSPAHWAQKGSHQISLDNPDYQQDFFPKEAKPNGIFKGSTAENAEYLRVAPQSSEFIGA
T2 sequence (P00533 with tags, fused parts or gaps INS770NPG): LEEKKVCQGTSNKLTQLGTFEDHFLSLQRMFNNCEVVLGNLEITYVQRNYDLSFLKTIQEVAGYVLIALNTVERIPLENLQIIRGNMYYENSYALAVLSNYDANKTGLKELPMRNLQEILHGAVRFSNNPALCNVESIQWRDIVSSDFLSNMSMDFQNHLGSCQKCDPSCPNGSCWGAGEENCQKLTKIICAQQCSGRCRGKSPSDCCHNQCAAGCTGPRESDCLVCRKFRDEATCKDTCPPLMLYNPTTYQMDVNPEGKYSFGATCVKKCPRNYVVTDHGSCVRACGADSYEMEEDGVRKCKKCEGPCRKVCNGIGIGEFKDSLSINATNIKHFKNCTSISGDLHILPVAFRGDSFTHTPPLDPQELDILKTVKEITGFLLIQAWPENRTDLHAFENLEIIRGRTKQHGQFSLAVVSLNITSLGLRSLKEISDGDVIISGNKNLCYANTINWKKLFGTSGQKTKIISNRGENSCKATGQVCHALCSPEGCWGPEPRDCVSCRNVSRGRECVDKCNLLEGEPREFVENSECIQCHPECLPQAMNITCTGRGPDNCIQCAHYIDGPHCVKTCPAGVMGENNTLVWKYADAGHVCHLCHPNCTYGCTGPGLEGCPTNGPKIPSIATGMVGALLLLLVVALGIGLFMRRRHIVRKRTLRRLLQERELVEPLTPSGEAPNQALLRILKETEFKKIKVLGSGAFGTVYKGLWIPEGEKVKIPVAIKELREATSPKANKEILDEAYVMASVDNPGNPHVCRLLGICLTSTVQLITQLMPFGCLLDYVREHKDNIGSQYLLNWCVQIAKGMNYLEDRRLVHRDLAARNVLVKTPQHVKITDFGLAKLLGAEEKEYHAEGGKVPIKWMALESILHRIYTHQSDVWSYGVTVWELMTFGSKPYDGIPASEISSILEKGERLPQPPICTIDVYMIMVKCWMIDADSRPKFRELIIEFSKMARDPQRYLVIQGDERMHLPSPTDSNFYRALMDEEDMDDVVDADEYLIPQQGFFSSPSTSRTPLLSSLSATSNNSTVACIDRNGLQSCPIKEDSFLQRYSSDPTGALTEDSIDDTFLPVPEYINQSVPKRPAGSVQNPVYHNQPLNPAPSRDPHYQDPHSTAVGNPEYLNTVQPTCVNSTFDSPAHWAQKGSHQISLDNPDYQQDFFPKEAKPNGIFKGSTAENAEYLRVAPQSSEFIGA
T5 sequence (P00533 with tags, fused parts or gaps INS763FQEA): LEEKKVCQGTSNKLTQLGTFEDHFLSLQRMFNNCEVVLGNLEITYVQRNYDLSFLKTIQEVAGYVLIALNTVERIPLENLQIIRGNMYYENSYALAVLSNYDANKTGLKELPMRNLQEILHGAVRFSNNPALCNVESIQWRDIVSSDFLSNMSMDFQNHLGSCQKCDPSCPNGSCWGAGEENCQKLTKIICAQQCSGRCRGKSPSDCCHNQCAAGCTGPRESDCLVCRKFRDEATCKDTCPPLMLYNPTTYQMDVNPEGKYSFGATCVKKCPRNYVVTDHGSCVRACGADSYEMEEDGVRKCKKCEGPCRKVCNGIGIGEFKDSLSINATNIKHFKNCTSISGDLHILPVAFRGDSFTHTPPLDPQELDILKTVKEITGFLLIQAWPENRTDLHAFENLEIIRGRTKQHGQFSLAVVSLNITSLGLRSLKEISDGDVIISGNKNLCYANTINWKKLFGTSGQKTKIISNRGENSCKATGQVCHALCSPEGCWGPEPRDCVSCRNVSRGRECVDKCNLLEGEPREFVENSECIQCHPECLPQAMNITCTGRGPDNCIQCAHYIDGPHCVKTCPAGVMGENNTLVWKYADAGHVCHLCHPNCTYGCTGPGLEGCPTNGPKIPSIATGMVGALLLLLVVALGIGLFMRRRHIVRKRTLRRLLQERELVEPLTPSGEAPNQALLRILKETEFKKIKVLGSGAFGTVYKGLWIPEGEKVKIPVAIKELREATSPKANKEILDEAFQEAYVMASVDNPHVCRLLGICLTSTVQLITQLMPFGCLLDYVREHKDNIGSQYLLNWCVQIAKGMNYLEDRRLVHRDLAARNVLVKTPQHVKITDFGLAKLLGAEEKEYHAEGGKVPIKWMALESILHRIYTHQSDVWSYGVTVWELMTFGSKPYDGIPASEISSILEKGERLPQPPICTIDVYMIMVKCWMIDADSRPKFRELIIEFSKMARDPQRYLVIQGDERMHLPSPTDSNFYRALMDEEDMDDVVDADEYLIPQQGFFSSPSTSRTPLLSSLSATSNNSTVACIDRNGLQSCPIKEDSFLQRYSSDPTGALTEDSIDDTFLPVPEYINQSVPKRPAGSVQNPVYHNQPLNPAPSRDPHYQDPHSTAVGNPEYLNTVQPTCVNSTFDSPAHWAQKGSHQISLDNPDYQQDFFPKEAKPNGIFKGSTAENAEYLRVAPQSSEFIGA
T3 sequence (P00533 with tags, fused parts or gaps INS769ASV): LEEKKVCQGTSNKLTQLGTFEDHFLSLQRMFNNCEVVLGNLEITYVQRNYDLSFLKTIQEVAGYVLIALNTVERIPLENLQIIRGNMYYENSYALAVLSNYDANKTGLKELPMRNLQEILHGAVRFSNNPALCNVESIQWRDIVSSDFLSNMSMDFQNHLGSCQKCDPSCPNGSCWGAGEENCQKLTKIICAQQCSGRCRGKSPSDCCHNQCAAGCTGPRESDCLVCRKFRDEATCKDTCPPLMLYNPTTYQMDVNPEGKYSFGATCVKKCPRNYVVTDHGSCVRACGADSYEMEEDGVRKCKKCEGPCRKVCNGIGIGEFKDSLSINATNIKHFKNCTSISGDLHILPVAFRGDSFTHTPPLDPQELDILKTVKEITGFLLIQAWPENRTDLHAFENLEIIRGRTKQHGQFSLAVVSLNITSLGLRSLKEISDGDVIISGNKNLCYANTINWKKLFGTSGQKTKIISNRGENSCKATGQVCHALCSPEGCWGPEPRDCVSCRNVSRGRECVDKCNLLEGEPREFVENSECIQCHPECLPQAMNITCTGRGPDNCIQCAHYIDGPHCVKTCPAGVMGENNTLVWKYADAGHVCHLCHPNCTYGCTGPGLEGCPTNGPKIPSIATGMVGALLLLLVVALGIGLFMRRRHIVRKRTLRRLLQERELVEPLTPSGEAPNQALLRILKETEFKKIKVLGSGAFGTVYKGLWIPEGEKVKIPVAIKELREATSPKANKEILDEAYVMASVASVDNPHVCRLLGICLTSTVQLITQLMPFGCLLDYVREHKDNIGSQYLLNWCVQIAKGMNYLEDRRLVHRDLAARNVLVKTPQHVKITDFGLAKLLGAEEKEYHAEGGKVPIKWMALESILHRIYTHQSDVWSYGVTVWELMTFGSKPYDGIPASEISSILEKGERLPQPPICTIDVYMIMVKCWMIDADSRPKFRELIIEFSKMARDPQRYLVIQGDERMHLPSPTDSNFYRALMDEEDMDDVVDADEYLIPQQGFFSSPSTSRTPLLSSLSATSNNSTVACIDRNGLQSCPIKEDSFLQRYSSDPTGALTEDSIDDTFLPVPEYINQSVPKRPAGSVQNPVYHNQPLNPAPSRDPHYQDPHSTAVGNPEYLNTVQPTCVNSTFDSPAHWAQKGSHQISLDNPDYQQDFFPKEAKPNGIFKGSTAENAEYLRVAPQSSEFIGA

Row | Compound | IC50 (EGFR WT (Ba/F3 cells)) [nM] | IC50 [1] [nM] | IC50 [2] [nM] | IC50 [3] [nM] | IC50 [4] [nM]
1 | COCC[C@H]1CNC(=O)c2c1[nH]c(-c1ccncc1F)c2Nc1cccc(F)c1OC [421a] | > 1000 | 100 to 1000 | 100 to 1000 | 100 to 1000 | 100 to 1000
2 | COc1c(F)cccc1Nc1c(-c2ccncc2F)[nH]c2c1C(=O)NC[C@@H]2CC1COC1 [469b] | > 1000 | > 1000 | > 1000 | > 1000 | > 1000
3 | COc1c(Cl)cccc1Nc1c(-c2ccnc3ccc(O[C@@H]4CCOC4)nc23)[nH]c2c1C(=O)NCC2 [compound 743, 3-[(3-chloro-2-methoxyphenyl)amino]-2-[6-[(3R)-oxolan-3-yloxy]-1,5-naphthyridin-4-yl]-1H,5H,6H,7H-pyrrolo[3,2-c]pyridin-4-one] | 100 to 1000 | < 100 | < 100 | < 100 | < 100
4 | COc1c(Cl)cc(F)cc1Nc1c(-c2ccnc(N)n2)[nH]c2c1C(=O)NCC2 [Compound 714, 2-(2-aminopyrimidin-4-yl)-3-[(3-chloro-5-fluoro-2-methoxyphenyl)amino]-1H,5H,6H,7H-pyrrolo[3,2-c]pyridin-4-one; trifluoroacetic acid] | > 1000 | < 100 | 100 to 1000 | 100 to 1000 | 100 to 1000
5 | COc1c(Cl)cccc1Nc1c(-c2ccnc(Nc3ccn(C)n3)n2)[nH]c2c1C(=O)NCC2 [compound 509, 3-[(3-chloro-2-methoxyphenyl)amino]-2-{2-[(1-methylpyrazol-3-yl)amino]pyrimidin-4-yl}-1H,5H,6H,7H-pyrrolo[3,2-c]pyridin-4-one] | < 100 | < 100 | < 100 | < 100 | < 100
6 | COc1c(Cl)cccc1Nc1c(-c2ccnc(NC[C@@H]3CCO3)n2)[nH]c2c1C(=O)NCC2 [compound 719] | > 1000 | 100 to 1000 | 100 to 1000 | > 1000 | > 1000
7 | COc1c(Cl)cccc1Nc1c(-c2ccnc3cccnc23)[nH]c2c1C(=O)NCC2 [Compound 683, 3-[(3-chloro-2-methoxyphenyl)amino]-2-(1,5-naphthyridin-4-yl)-1H,5H,6H,7H-pyrrolo[3,2-c]pyridin-4-one] | 100 to 1000 | < 100 | < 100 | < 100 | < 100
8 | COc1c(Cl)cccc1Nc1c(-c2ccnc3ccc(O[C@H]4CCCOC4)nc23)[nH]c2c1C(=O)NCC2 [compound 741, 3-[(3-chloro-2-methoxyphenyl)amino]-2-[6-[(3S)-oxan-3-yloxy]-1,5-naphthyridin-4-yl]-1H,5H,6H,7H-pyrrolo[3,2-c]pyridin-4-one; formic acid] | < 100 | < 100 | < 100 | < 100 | < 100
9 | COc1c(Cl)cccc1Nc1c(-c2ccnc3ccc(OC4COC4)nc23)[nH]c2c1C(=O)NCC2 [compound 732, 3-[(3-chloro-2-methoxyphenyl)amino]-2-[6-(oxetan-3-yloxy)-1,5-naphthyridin-4-yl]-1H,5H,6H,7H-pyrrolo[3,2-c]pyridin-4-one] | < 100 | < 100 | < 100 | < 100 | < 100
10 | CCOc1ccc2nccc(-c3[nH]c4c(c3Nc3cccc(Cl)c3OC)C(=O)NCC4)c2n1 [compound 761, 3-[(3-chloro-2-methoxyphenyl)amino]-2-(6-ethoxy-1,5-naphthyridin-4-yl)-1H,5H,6H,7H-pyrrolo[3,2-c]pyridin-4-one] | < 100 | < 100 | < 100 | < 100 | < 100
11 | COc1c(Cl)cccc1Nc1c(-c2ccnc3ccc(OCCN(C)C)nc23)[nH]c2c1C(=O)NCC2 [compound 736, 3-[(3-chloro-2-methoxyphenyl)amino]-2-[6-[2-(dimethylamino)ethoxy]-1,5-naphthyridin-4-yl]-1H,5H,6H,7H-pyrrolo[3,2-c] pyridin-4-one; formic acid] | 100 to 1000 | 100 to 1000 | < 100 | < 100 | 100 to 1000
12 | COc1c(F)cccc1Nc1c(-c2ccncc2F)[nH]c2c1C(=O)NC[C@H]2C[C@H]1CCO1 [Compound 422d, (7R)-3-[(3-fluoro-2-methoxyphenyl)amino]-2-(3-fluoropyridin-4-yl)-7-[(2S)-oxetan-2-ylmethyl]-1H,5H,6H,7H-pyrrolo[3,2-c]pyridin-4-one] | 100 to 1000 | < 100 | < 100 | < 100 | 100 to 1000
13 | COc1c(Cl)cccc1Nc1c(-c2ccnc3ccc(O[C@@H]4CCCOC4)nc23)[nH]c2c1C(=O)NCC2 [compound 742, 3-[(3-chloro-2-methoxyphenyl)amino]-2-[6-[(3R)-oxan-3-yloxy]-1,5-naphthyridin-4-yl]-1H,5H,6H,7H-pyrrolo[3,2-c]pyridin-4-one; formic acid] | 100 to 1000 | < 100 | < 100 | < 100 | < 100
14 | COc1c(Nc2c(-c3ccnc(N)n3)[nH]c3c2C(=O)NCC3)ccc(F)c1Cl [compound 713, 2-(2-aminopyrimidin-4-yl)-3-[(3-chloro-4-fluoro-2-methoxyphenyl)amino]-1H,5H,6H,7H-pyrrolo[3,2-c]pyridin-4-one] | > 1000 | 100 to 1000 | 100 to 1000 | 100 to 1000 | > 1000
15 | CCO[C@H](C)c1ccc2nccc(-c3[nH]c4c(c3Nc3cccc(Cl)c3OC)C(=O)NCC4)c2n1 [compound 753, 3-[(3-chloro-2-methoxyphenyl)amino]-2-[6-[(1R)-1-ethoxyethyl]-1,5-naphthyridin-4-yl]-1H,5H,6H,7H-pyrrolo[3,2-c]pyridin-4-one; trifluoroacetic acid] | < 100 | < 100 | < 100 | < 100 | < 100
16 | COc1c(Cl)cccc1Nc1c(-c2ccnc3ccc(OCC4CN(C)C4)nc23)[nH]c2c1C(=O)NCC2 [compound 738, 3-[(3-chloro-2-methoxyphenyl)amino]-2-[6-[(1-methylazetidin-3-yl)methoxy]-1,5-naphthyridin-4-yl]-1H,5H,6H,7H-pyrrolo[3,2-c]pyridin-4-one] | 100 to 1000 | < 100 | < 100 | < 100 | 100 to 1000
17 | COc1c(Cl)cccc1Nc1c(-c2ccncc2F)[nH]c2c1C(=O)NC[C@@H]2CC(=O)N(C)C [Compound 488] | > 1000 | < 100 | < 100 | < 100 | 100 to 1000
18 | COc1c(Cl)cccc1Nc1c(-c2ccnc3ccc(O[C@H]4CCOC4)nc23)[nH]c2c1C(=O)NCC2 [compound 739, 3-[(3-chloro-2-methoxyphenyl)amino]-2-[6-[(3S)-oxolan-3-yloxy]-1,5-naphthyridin-4-yl]-1H,5H,6H,7H-pyrrolo[3,2-c]pyridin-4-one] | 100 to 1000 | < 100 | < 100 | < 100 | 100 to 1000
19 | COCC[C@H]1CNC(=O)c2c1[nH]c(-c1ccnc(N)n1)c2Nc1cccc(Cl)c1OC [Compound 727, (7S)-2-(2-aminopyrimidin-4-yl)-3-[(3-chloro-2-methoxyphenyl)amino]-7-(2-methoxyethyl)-1H,5H,6H,7H-pyrrolo[3,2-c]pyridin-4-one] | 100 to 1000 | < 100 | < 100 | < 100 | < 100
20 | COc1c(F)cccc1Nc1c(-c2ccncc2F)[nH]c2c1C(=O)NC[C@@H]2C[C@H]1CCO1 [Compound 422c, (7S)-3-[(3-fluoro-2-methoxyphenyl)amino]-2-(3-fluoropyridin-4-yl)-7-[(2S)-oxetan-2-ylmethyl]-1H,5H,6H,7H-pyrrolo[3,2-c]pyridin-4-one] | > 1000 | 100 to 1000 | 100 to 1000 | 100 to 1000 | 100 to 1000
21 | CSc1c(F)cccc1Nc1c(-c2ccnc(N)n2)[nH]c2c1C(=O)NCC2 [Compound 716, 2-(2-aminopyrimidin-4-yl)-3-[[3-fluoro-2-(methylsulfanyl)phenyl]amino]-1H,5H,6H,7H-pyrrolo[3,2-c]pyridin-4-one; trifluoroacetic acid] | > 1000 | 100 to 1000 | 100 to 1000 | 100 to 1000 | 100 to 1000
22 | COc1c(Cl)cccc1Nc1c(-c2ccnc3ccc(OCC4COC4)nc23)[nH]c2c1C(=O)NCC2 [compound 737, 3-[(3-chloro-2-methoxyphenyl)amino]-2-[6-(oxetan-3-ylmethoxy)-1,5-naphthyridin-4-yl]-1H,5H,6H,7H-pyrrolo[3,2-c] pyridin-4-one] | 100 to 1000 | < 100 | < 100 | < 100 | < 100
